Data: US20240277641A1, “METHODS FOR TREATING NERVOUS SYSTEM DISORDERS WITH […] AGENTS” (PAXMEDICA, INC., priority 2021, published 2024)
Like-named read-outs stand apart in the source and are kept apart here.

How the values were obtained:
mouse model of epilepsy = conditions: cited from earlier work
[1] = test system: male children with Autism Spectrum Disorder (ASD); assay: Adverse effects in the ASD trial; format: in vivo, human
Method: (§1) This is the first time that multiple doses were studied in patients with neurodevelopmental disorders, and where they were observed over a long term duration. Previously, only a single 20 mg/kg dose had been described in an ASD study. See, R. K. Naviaux, “Antipurinergic therapy for autism—An in-depth review”, Mitochondrion 43, pp. 1-15 (2018), available online Dec. 16, 2017.
Since only predose, 1 hour post dose, and before the next dose administration samples were collected, it was not possible to determine the exact distribution and elimination curves and therefore extrapolated parameters such as AUC0-∞ and T1/2 were not determinable.

[2] = cited from earlier work
[3] = Suramin plasma pharmacokinetics in three-arm, randomized, double blind, placebo-controlled trial, intravenous infusion; format: in vivo, human; conditions: for Plasma Concentration / AUCInterval / AUCinterval/Dose / Cmax/Dose / Cmin / AUCOverall / AUCVisit 4 / AUCVisit 5 / AUCVisit 7 / Cmin, Visit 5 / Cmin, Visit 7 / Cmin. overall / Cmax / concentration at 28 day: mean; for half-life / Cmax / concentration at 28 day: male, human, plasma; for half-life: intravenous; for concentration at 28 day: read-out: Cmin, Visit 4
Excerpt: The following Table 2 outlines the visit schedule:
A non-compartmental pharmacokinetic (PK) approach consistent with the intravenous route of administration was used to estimate PK parameters in Watson LIMS software (version 7.5). […] All concentration values were in μg/mL, and all time points were in days as provided by the bioanalytical testing facility. Nominal dose concentrations and sampling times were used. The area under the plasma concentration-time curve (AUC) estimations were calculated on profiles having at least a quantifiable post-dose and pre-dose prior to the next dosing occasion. The observed maximum plasma concentration (Cmax) and time of Cmax (Tmax) were determined directly from the data.
Pharmacokinetic parameters were estimated using a non-compartmental approach consistent with intravenous infusion route of administration.
For area under the curve (AUC) estimation, measured plasma concentration for post dose and pre dose before the next dosing event were needed. For this study, samples for pharmacokinetic analysis were collected on days 1, 28, 56, and 96.
Whenever possible, standard deviation and coefficient of variation were determined by Watson LIMS software. For analyses that were not supported by Watson (i.e. custom comparisons), Excel was used and the statistics reported as determined by excel algorithms. Note that in either case, when the number of data points was less than three, standard deviation and coefficient of variation could not be calculated.
The route of administration was intravenous infusion over a 30 minute period on visits 2, 4, and 5.

[4] = test system: male children with Autism Spectrum Disorder (ASD); assay: Efficacy by Aberrant Behavior Checklist (ABC) versus suramin blood levels in the ASD trial; format: in vivo, human; conditions: 10 or 20 mg/kg IV
Method: as §1
Each study participant attended a total of 7 visits, screening period (Visit 1.14 days), Randomization visit (Visit 2 day 1), treatment follow up visits (visit 3; day 14), treatment visit (visit 4; Day 28), treatment visit (visit 5; Day 56), End of treatment visit (visit 6; Day 77) and EOS (visit 7; day 98). Window period for screening until visit 2 will be ±14 days (thus the study procedures can be performed over 14 days) and for visit 2 onwards will be ±2 days (thus the procedures can be performed over 5 days) (Visit 2 to 7).

[5] = 10 mg/kg to 20 mg/kg dose range
[6] = Table 3A, 10 mg dose group, IV, children
[7] = Table 3C, 20 mg dose group, IV, children
[8] = Table 7, 10 mg/kg Dose, n = 13, IV
[9] = Table 7, 20 mg/kg Dose, n = 14, IV

O=C(NCC1(N2CCN(c3ccccc3)CC2)CCOCC1)c1cccnc1Sc1ccccc1 [JNJ-47965567, 2-(Phenylthio)-N-[[tetrahydro-4-(4-phenyl-1-piperazinyl)-2H-pyran-4-yl]methyl]-3-pyridinecarboxamide]
epileptic seizures (mouse model of epilepsy): suppress epileptic seizures

Cc1ccc(C(=O)Nc2ccc(S(=O)(=O)O)c3cc(S(=O)(=O)O)cc(S(=O)(=O)O)c23)cc1NC(=O)c1cccc(NC(=O)Nc2cccc(C(=O)Nc3cc(C(=O)Nc4ccc(S(=O)(=O)O)c5cc(S(=O)(=O)O)cc(S(=O)(=O)O)c45)ccc3C)c2)c1 [suramin, 1,3,5-Naphthalenetrisulfonic acid, 8,8′-[carbonylbis[imino-3,1-phenylenecarbonylimino(4-methyl-3,1-phenylene)carbonylimino]]bis-]
adverse effects such as visible rash or vomiting ([1]; 10 mg/kg dose group): only one event
adverse effects such as visible rash or vomiting ([1]; 20 mg/kg dose group): occurred mostly in the 20 mg/kg dose group
half-life, average ([2]; average): 50 days
oral bioavailability ([2]; in vivo, po): poor oral bioavailability
Plasma Concentration ([3]; 10 mg/kg IV, visit 2, day 1, 1 h post-infusion): 229000 ng/mL
Plasma Concentration ([3]; 10 mg/kg IV, visit 4, day 28, 1 h post-infusion): 157000 ng/mL
Plasma Concentration ([3]; 10 mg/kg IV, visit 4, day 28, pre-dose): 4310 ng/mL
Plasma Concentration ([3]; 10 mg/kg IV, visit 5, day 56, 1 h post-infusion): 164000 ng/mL
Plasma Concentration ([3]; 10 mg/kg IV, visit 5, day 56, pre-dose): 7960 ng/mL
Plasma Concentration ([3]; 10 mg/kg IV, visit 7, day 96, EOS): 7870 ng/mL
Dose proportionality of AUC0-96 [3, 5]: nearly dose proportional
Dose proportionality of Cmax [3, 5]: less than dose proportional
Plasma Concentration ([3]; 20 mg/kg IV, visit 2, day 1, 1 h post-infusion): 328000 ng/mL
Plasma Concentration ([3]; 20 mg/kg IV, visit 4, day 28, 1 h post-infusion): 327000 ng/mL
Plasma Concentration ([3]; 20 mg/kg IV, visit 4, day 28, pre-dose): 11000 ng/mL
Plasma Concentration ([3]; 20 mg/kg IV, visit 5, day 56, 1 h post-infusion): 332000 ng/mL
Plasma Concentration ([3]; 20 mg/kg IV, visit 5, day 56, pre-dose): 21100 ng/mL
Plasma Concentration ([3]; 20 mg/kg IV, visit 7, day 96, EOS): 23400 ng/mL
AUCInterval [3, 6]: 4780 µg·days/mL
AUCinterval/Dose [3, 6]: 478 µg·days/mL/mg
Cmax/Dose [3, 6]: 24.4 µg/mL/mg
Cmin [3, 6]: 4300 ng/mL
AUCInterval [3, 7]: 9510 µg·days/mL
AUCinterval/Dose [3, 7]: 475 µg·days/mL/mg
Cmax/Dose [3, 7]: 18.3 µg/mL/mg
Cmin [3, 7]: 10600 ng/mL
AUCOverall [3, 8]: 4600.0 µg·days/mL
AUCVisit 4 [3, 8]: 1195.6 µg·days/mL
AUCVisit 5 [3, 8]: 1386.7 µg·days/mL
AUCVisit 7 [3, 8]: 2017.7 µg·days/mL
AUCinterval/Dose [3, 8]: 460.0 µg·days/mL/mg
Cmax/Dose [3, 8]: 18.1 µg/mL/mg
Cmin, Visit 5 [3, 8]: 7700 ng/mL
Cmin, Visit 7 [3, 8]: 7700 ng/mL
Cmin. overall [3, 8]: 4400 ng/mL
AUCOverall [3, 9]: 10203.6 µg·days/mL
AUCVisit 4 [3, 9]: 2431.4 µg·days/mL
AUCVisit 5 [3, 9]: 3121.4 µg·days/mL
AUCVisit 7 [3, 9]: 4650.7 µg·days/mL
AUCinterval/Dose [3, 9]: 510.1 µg·days/mL/mg
Cmax/Dose [3, 9]: 18.0 µg/mL/mg
Cmin, Visit 5 [3, 9]: 21900 ng/mL
Cmin, Visit 7 [3, 9]: 24200 ng/mL
Cmin. overall [3, 9]: 10600 ng/mL
half-life ([3]; 10 mg low dose level, inferred from lack of accumulation): < 28 days
half-life ([3]; 20 mg high dose level, inferred from accumulation): > 28 days
Cmax ([3]; Table 3A, 10 mg dose group, IV, children, read-out: Cmax): 244000 ng/mL
Cmax ([3]; Table 3C, 20 mg dose group, IV, children, read-out: Cmax): 365000 ng/mL
Cmax ([3]; Table 7, 10 mg/kg Dose, n = 13, IV, read-out: Cmax, Oveall): 181000 ng/mL
concentration at 28 day [3, 8]: 4400 ng/mL
Cmax ([3]; Table 7, 20 mg/kg Dose, n = 14, IV, read-out: Cmax, Oveall): 359000 ng/mL
concentration at 28 day [3, 9]: 10900 ng/mL
change in ABC scores from baseline versus exposure [4]: A greater change in ABC scores from baseline was observed with lower exposures
correlation between blood levels and efficacy (ABC) ([4]; multiple doses): dynamic nonlinear correlation between antipurinergic blood levels and efficacy
